Source: paper PMC12537910, “Mosquito salivary sialokinin reduces monocyte activation and chikungunya virus-induced inflammation via neurokinin receptors” (Nature Communications, 2025)
Several values for one entry are separate records, joined by “and”; a condition that tells them apart may be missing. Equal entries are not always repeated. No end group written: not given here.

What was measured:
Assay type in all cases: cell-based
[1] = molecular target: T1, human NK1R (Homo sapiens, UniProt P25103)
T1 construct: expressed in transfected cells; host or cells: CHO (CHO-K1) cells, stably transfected; gift from Dr Shinya Oishi, Kyoto University
T1 sequence (P25103 whole entry): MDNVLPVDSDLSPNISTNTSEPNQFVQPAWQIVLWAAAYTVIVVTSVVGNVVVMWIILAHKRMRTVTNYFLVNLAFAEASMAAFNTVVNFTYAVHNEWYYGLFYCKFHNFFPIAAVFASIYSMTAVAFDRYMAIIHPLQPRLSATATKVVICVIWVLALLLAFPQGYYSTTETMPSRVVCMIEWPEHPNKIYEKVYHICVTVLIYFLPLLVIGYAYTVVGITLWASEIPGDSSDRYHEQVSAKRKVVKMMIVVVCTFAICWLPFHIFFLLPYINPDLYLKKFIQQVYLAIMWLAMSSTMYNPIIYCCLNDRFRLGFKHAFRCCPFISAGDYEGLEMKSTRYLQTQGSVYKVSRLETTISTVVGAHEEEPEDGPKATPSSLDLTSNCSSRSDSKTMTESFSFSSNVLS
Text: (§1) Supplementary Fig. 1: Molecular properties of sialokinin and its binding affinities to human neurokinin
(§2) (1 picture or pasted object on this page, not shown here)

[2] = system: PI3K; test: Western blot P-PI3K/PI3K, human monocytes; conditions: for effect on sialokinin-stimulated phosphorylation of PI3K: antagonist pre-treatment
Protocol: (§3) DEG analysis was performed using edgeR, with multiple testing corrected via the Benjamini–Hochberg FDR method. […] Relative expression levels of P-PI3K/PI3K (n = 4 biological replicates) and P-Akt/Akt (n = 5 biological replicates) in monocytes at the 20-min time point were quantified with ImageJ. Levels are expressed as fold change relative to the non-treated controls. Bar graphs represent the mean ± standard deviation (SD). […] CD169 levels at 24 h post-treatment were measured by mean fluorescence intensity (MFI) and expressed as fold change relative to non-treated controls. Statistical comparisons were performed using paired two-tailed t-test or Wilcoxon signed-rank test, depending on data distribution.
(§4) Freshly purified human monocytes and six-day-differentiated MDMs ([…] cells/well) were incubated with or without sialokinin peptides in complete IMDM supplemented with 10% (vol/vol) HS (Sigma-Aldrich) and 1% (vol/vol) penicillin-streptomycin. Untreated monocytes and MDMs served as no-treatment controls.
(§5) To detect the phosphorylation status of PI3K/Akt kinases following sialokinin stimulation, cells were lysed with lysis buffer (Cell Signaling Technology) containing 2 mM PMSF. Lysates were separated by SDS-PAGE and subjected to western blotting using the following antibodies: P-PI3K (p85; Tyr458/p55; Tyr199, Cell Signaling Technology, 1:2000), PI3K (p85, Cell Signaling Technology, 1:2000), P-Akt (Ser473, Cell Signaling Technology, 1:2000), and Akt (Cell Signaling Technology, 1:2000). Signal intensities were visualized using a ChemiDoc imaging system (Bio-Rad) and quantified using Image Lab software version 6.0.1 (Bio-Rad).

[3] = system: Akt; test: Western blot P-Akt/Akt, human monocytes; conditions: for effect on sialokinin-stimulated phosphorylation of Akt: antagonist pre-treatment
Protocol: as §3, §4, §5

[4] = system: primary human monocytes; test: CD169 expression after antagonist/inhibitor pre-treatment and sialokinin, monocytes; conditions: for CD 169 expression (MFI): monocytes 24 h, n = 5; for effect on sialokinin-mediated downregulation of CD169: pre-treatment 30 min before sialokinin, monocytes
Protocol: as §3, §4
Following harvesting, human monocytes and MDMs were specifically stained for the surface markers: CD45, CD14, CCR2, HLA-DR, CD16, CD11b, and CD169 (for monocytes); or CD45, CD14, HLA-DR, CD64, CD86, CD163, CD206, and CD169 (for MDMs). Dead cells were excluded by staining with the LIVE/DEAD Fixable Aqua Dead Cell Stain Kit (Life Technologies). The stained cells were subsequently incubated with FACS lysing solution (BD Biosciences) to lyse the red blood cells. Data were acquired on a Fortessa flow cytometer (BD Biosciences) with BD FACSDiva software version 9.0. Data analysis was performed using FlowJo version 9.3.2 (Tree Star, Inc.).

[5] = molecular target: T1, human NK1R; test: Calcium flux assay, CHO cells expressing human NK1R; conditions: CHO-K1 cells expressing human NK1R; FLIPR; mean ± SEM of three independent experiments in triplicate; read-out: EC50 (peak calcium response)
Protocol: (§6) We assessed the binding affinity of sialokinin I, the predominant form in Aedes saliva, for human NK receptors using a calcium flux assay.
(§7) Calcium flux assay was carried out on CHO cells stably transfected with one of the human NK receptors (NK1R, NK2R, or NK3R). CHO cells were seeded at a density of 70,000 cells/well in 100 µL of Ham’s F-12 media in a black 96-well clear-bottom plate (Greiner). After overnight incubation, the media was replaced with Calcium 6 assay dye from Molecular Devices (1:1 dilution with buffer solution of 1× HBSS containing 20 mM HEPES) followed by incubation for 2 h at 37 °C for the absorption of dye into the cytoplasm. The intracellular calcium ion flux analysis was performed at different concentrations of sialokinin (tenfold dilution) using a FLIPR Tetra instrument (Molecular Devices). Fluorescence signal was recorded at excitation and emission wavelengths of 485 nm and 535 nm, respectively. The change in fluorescence is presented as the percent change with respect to baseline fluorescence. EC50 values were determined from dose-response curves plotted using Prism 5 (GraphPad).
as §1, §2

[6] = molecular target: T2, human NK2R (Homo sapiens, UniProt P21452); test: Calcium flux assay, CHO cells expressing human NK2R; conditions: CHO-K1 cells expressing human NK2R; FLIPR; mean ± SEM of three independent experiments in triplicate; read-out: EC50 (peak calcium response)
T2 construct: expressed in transfected cells; host or cells: CHO (CHO-K1) cells, stably transfected; gift from Dr Shinya Oishi, Kyoto University
T2 sequence (P21452 1-398): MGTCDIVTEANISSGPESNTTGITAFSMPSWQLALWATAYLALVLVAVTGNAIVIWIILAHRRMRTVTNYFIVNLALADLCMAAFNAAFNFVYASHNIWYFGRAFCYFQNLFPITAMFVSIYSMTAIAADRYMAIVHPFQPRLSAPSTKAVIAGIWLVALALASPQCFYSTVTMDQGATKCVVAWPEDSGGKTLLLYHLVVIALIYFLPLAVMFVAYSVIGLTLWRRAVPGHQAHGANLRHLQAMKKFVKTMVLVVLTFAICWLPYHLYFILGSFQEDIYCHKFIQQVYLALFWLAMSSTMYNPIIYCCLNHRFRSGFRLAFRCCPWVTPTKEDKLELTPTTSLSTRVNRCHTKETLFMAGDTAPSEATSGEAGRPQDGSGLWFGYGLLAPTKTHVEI
Protocol: as §6, §7, §1, §2

[7] = molecular target: T3, human NK3R (Homo sapiens, UniProt P29371); test: Calcium flux assay, CHO cells expressing human NK3R; conditions: CHO-K1 cells expressing human NK3R; FLIPR; mean ± SEM of three independent experiments in triplicate; read-out: EC50 (peak calcium response)
T3 construct: expressed in transfected cells; host or cells: CHO (CHO-K1) cells, stably transfected; gift from Dr Shinya Oishi, Kyoto University
T3 sequence (P29371 1-465): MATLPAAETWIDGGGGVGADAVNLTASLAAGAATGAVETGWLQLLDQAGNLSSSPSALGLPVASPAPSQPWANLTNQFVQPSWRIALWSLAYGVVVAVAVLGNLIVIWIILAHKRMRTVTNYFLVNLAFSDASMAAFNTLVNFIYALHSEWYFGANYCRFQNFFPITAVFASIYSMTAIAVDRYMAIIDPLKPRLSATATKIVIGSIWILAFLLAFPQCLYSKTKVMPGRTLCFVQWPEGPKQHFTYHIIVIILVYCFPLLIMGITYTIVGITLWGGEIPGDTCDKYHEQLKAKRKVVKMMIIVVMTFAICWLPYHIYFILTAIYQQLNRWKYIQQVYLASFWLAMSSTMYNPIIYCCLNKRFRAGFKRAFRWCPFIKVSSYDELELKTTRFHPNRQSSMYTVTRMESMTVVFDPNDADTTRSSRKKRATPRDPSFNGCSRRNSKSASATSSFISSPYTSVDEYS
Protocol: as §6, §7, §1, §2

[8] = GR-159897 + sialokinin, individual replicates

With `COc1ccccc1CN[C@H]1C2CCN(CC2)[C@H]1C(c1ccccc1)c1ccccc1` [CP-96345] the “effect on Emax of sialokinin at NK1R” value [1] was “without affecting the Emax value”, the “effect on sialokinin-stimulated phosphorylation of PI3K” value [2] was “reduced” and the “effect on sialokinin-stimulated phosphorylation of Akt” value [3] was “reduced”. The “CD 169 expression (MFI)” value ([4]; CP-96345 + sialokinin, individual replicates) was 387 MFI and 396 MFI and 194 MFI and 919 MFI and 1966 MFI, the “CD 169 expression (MFI)” value ([4]; CP-96345 inhibitor only, individual replicates) was 586 MFI and 529 MFI and 236 MFI and 1225 MFI and 3060 MFI and the “effect on sialokinin-mediated downregulation of CD169” value (from here on “effect … of CD169”) [4] was “only partially neutralized”.

In the case of `COC1(C[S@@+]([O-])c2ccccc2)CCN(CCc2c[nH]c3ccc(F)cc23)CC1` [GR-159897], the “effect on sialokinin-stimulated phosphorylation of PI3K” value [2] is reported as “reduced”, the “P-PI3K/PI3K (expression relative to untreated control)” value ([2]; pre-treatment with NK2R antagonist then sialokinin, 20 min, individual replicates, n = 4) is reported as 0.877 and 0.977 and 0.987 and 0.967 and the “effect on sialokinin-stimulated phosphorylation of Akt” value [3] is reported as “reduced”. For the same compound, the “P-Akt/Akt (expression relative to untreated control)” value ([3]; pre-treatment with NK2R antagonist then sialokinin, 20 min, individual replicates, n = 5) was 0.9906 and 1.222 and 1.192 and 0.816 and 0.7836, the “CD169 relative fold change” value [4, 8] was 0.8629 and 0.8036 and 0.6381 and 0.8197 and 0.5757 and the “CD 169 expression (MFI)” value [4, 8] was 1530 MFI and 1669 MFI and 977 MFI and 2300 MFI and 1731 MFI. The “CD 169 expression (MFI)” value ([4]; GR-159897 inhibitor only, individual replicates) was 1773 MFI and 2077 MFI and 1531 MFI and 2806 MFI and 3007 MFI and the “effect … of CD169” value [4] was “only partially neutralized”.

For `O=c1cc(N2CCOCC2)oc2c(-c3ccccc3)cccc12` [LY-294002], the “CD 169 expression (MFI)” value ([4]; LY-294002 + sialokinin, individual replicates) was 182 MFI and 164 MFI and 106 MFI and 91.9 MFI and 143 MFI, the “CD 169 expression (MFI)” value ([4]; LY-294002 inhibitor only, individual replicates) was 216 MFI and 280 MFI and 107 MFI and 103 MFI and 164 MFI and the “effect … of CD169” value [4] was “completely blocked”.

Work on NTGDKFYGLM-NH2 [Sialokinin I] yielded an EC50 [5] of 0.052 ± 0.028 nM, an EC50 [6] of 0.288 ± 0.107 nM and an EC50 [7] of 1.29 ± 0.281 nM.
